Reference: BindingDB's records for doi:10.1016/s0960-894x(01)00306-7 (Atherogenics, 2001)

assay: Ability to inhibit expression of Vascular cell adhesion molecule 1

Row | Compound | IC50
1 | O=Cc1ccc(Cl)c([N+](=O)[O-])c1 [4-Chloro-3-nitro-benzaldehyde] | 15 µM
2 | O=C(c1ccc(Cl)c([N+](=O)[O-])c1)c1ccc(Cl)c([N+](=O)[O-])c1 [Bis-(4-chloro-3-nitro-phenyl)-methanone] | 5 µM
3 | CCCCN(CCCC)S(=O)(=O)c1ccc(Cl)c([N+](=O)[O-])c1 [N,N-Dibutyl-4-chloro-3-nitro-benzenesulfonamide] | 10 µM
4 | N#Cc1cc([N+](=O)[O-])c(Cl)c([N+](=O)[O-])c1 [4-Chloro-3,5-dinitro-benzonitrile] | 20 µM
5 | CCCCCN(CCCCC)S(=O)(=O)c1ccc(Cl)c([N+](=O)[O-])c1 [4-Chloro-3-nitro-N,N-dipentyl-benzenesulfonamide] | 7 µM
6 | CC(C)N(C(C)C)S(=O)(=O)c1ccc(Cl)c([N+](=O)[O-])c1 [4-Chloro-N,N-diisopropyl-3-nitro-benzenesulfonamide] | 10 µM
7 | CN(CCCCCCN(C)S(=O)(=O)c1ccc(Cl)c([N+](=O)[O-])c1)S(=O)(=O)c1ccc(Cl)c([N+](=O)[O-])c1 [1N-{6-[4-chloro-3-nitrophenyl(methyl)sulfonamido]hexyl}-1N-methyl-4-chloro-3-nitro-1-benzenesulfonamide] | 30 µM
8 | N#Cc1cc([N+](=O)[O-])ccc1Cl [2-Chloro-5-nitro-benzonitrile] | 17 µM
9 | CCCN(CCC)S(=O)(=O)c1ccc(Cl)c([N+](=O)[O-])c1 [4-Chloro-3-nitro-N,N-dipropyl-benzenesulfonamide] | 9 µM
10 | N#Cc1ccc(Cl)cc1[N+](=O)[O-] [4-Chloro-2-nitro-benzonitrile] | 5 µM
11 | CCOC(=O)C1CCN(S(=O)(=O)c2ccc(Cl)c([N+](=O)[O-])c2)CC1 [1-(4-Chloro-3-nitro-benzenesulfonyl)-piperidine-4-carboxylic acid ethyl ester] | 8 µM
12 | N#Cc1ccc(Cl)c([N+](=O)[O-])c1 [4-Chloro-3-nitro-benzonitrile] | 11 µM
13 | CN(CCCN(C)S(=O)(=O)c1ccc(Cl)c([N+](=O)[O-])c1)S(=O)(=O)c1ccc(Cl)c([N+](=O)[O-])c1 [1N-{3-[4-chloro-3-nitrophenyl(methyl)sulfonamido]propyl}-1N-methyl-4-chloro-3-nitro-1-benzenesulfonamide] | 6 µM
14 | COCCN(CCOC)S(=O)(=O)c1ccc(Cl)c([N+](=O)[O-])c1 [4-Chloro-N,N-bis-(2-methoxy-ethyl)-3-nitro-benzenesulfonamide] | 5 µM
15 | CN1CCN(S(=O)(=O)c2ccc(Cl)c([N+](=O)[O-])c2)CC1 [1-(4-Chloro-3-nitro-benzenesulfonyl)-4-methyl-piperazine] | 8 µM
16 | O=[N+]([O-])c1cc(S(=O)(=O)N(CCO)CCO)ccc1Cl [4-Chloro-N,N-bis-(2-hydroxy-ethyl)-3-nitro-benzenesulfonamide] | 19 µM
17 | COC(=O)c1ccc(S(C)(=O)=O)c([N+](=O)[O-])c1 [4-Methanesulfonyl-3-nitro-benzoic acid methyl ester] | 5 µM
18 | O=[N+]([O-])c1cc(S(=O)(=O)c2ccc(F)c([N+](=O)[O-])c2)ccc1F [1-fluoro-4-[(4-fluoro-3-nitrophenyl)sulfonyl]-2-nitrobenzene] | 7 µM
19 | N#Cc1cc([N+](=O)[O-])cc([N+](=O)[O-])c1 [3,5-Dinitro-benzonitrile] | 10 µM

Now from value to compound:

Row | IC50 | Compound
20 | 15 µM | O=C(c1ccccc1)c1ccc(Cl)c([N+](=O)[O-])c1 [(4-Chloro-3-nitro-phenyl)-phenyl-methanone]
21 | 15 µM | CCNS(=O)(=O)c1ccc(Cl)c([N+](=O)[O-])c1 [4-Chloro-N-ethyl-3-nitro-benzenesulfonamide]
22 | 11 µM | CNS(=O)(=O)c1ccc(Cl)c([N+](=O)[O-])c1 [4-Chloro-N-methyl-3-nitro-benzenesulfonamide]
23 | 10 µM | CCN(C)S(=O)(=O)c1ccc(Cl)c([N+](=O)[O-])c1 [4-Chloro-N-ethyl-N-methyl-3-nitro-benzenesulfonamide]
24 | 10 µM | CN(C)S(=O)(=O)c1ccc(Cl)c([N+](=O)[O-])c1 [4-Chloro-N,N-dimethyl-3-nitro-benzenesulfonamide]
25 | 18 µM | O=[N+]([O-])c1cc(S(=O)(=O)NCc2ccccc2)ccc1Cl [N-Benzyl-4-chloro-3-nitro-benzenesulfonamide]
26 | 40 µM | NS(=O)(=O)c1ccc(Cl)c([N+](=O)[O-])c1 [4-Chloro-3-nitro-benzenesulfonamide]
27 | 3 µM | CCN(CC)S(=O)(=O)c1ccc(Cl)c([N+](=O)[O-])c1 [4-Chloro-N,N-diethyl-3-nitro-benzenesulfonamide]
28 | 4 µM | O=[N+]([O-])c1cc(S(=O)(=O)N2CCCC2)ccc1Cl [1-(4-Chloro-3-nitro-benzenesulfonyl)-pyrrolidine]
29 | 15 µM | CCN(C(C)C)S(=O)(=O)c1ccc(Cl)c([N+](=O)[O-])c1 [4-Chloro-N-ethyl-N-isopropyl-3-nitro-benzenesulfonamide]
